The target of one series is SOD1. The following applies: ASO.
Another series addresses MALAT1. The following applies: ASO, A431, 0.005 µM.

Values joined by “and” are separate entries in the source; they are usually repeats but may differ in a detail not shown here. Equal entries are not always repeated. After the bases stand the sugars from the 5' end (letter, count) and the backbone: PS all phosphorothioate, else s phosphorothioate and o phosphodiester by linkage. Methylation of C is not given here. e = 2'-O-(2-methoxyethyl) (MOE); k = constrained ethyl (cEt); d = 2'-deoxy (DNA)

As for “TACAGCTAGCAGGATAA (sugars e2 k2 d9 k2 e2, PS)”, the target mRNA inhibition with SOD1 (HepG2, 0.1875 µM) is 24%; with SOD1 (HepG2, 0.75 µM), 71%; with SOD1 (HepG2, 3 µM) it was 85%; with SOD1 (HepG2, 4 µM), 86%; in the series with SOD1 (HepG2, 12 µM), 98%.
As to “ATGTTTATCAGGATACA (sugars e2 k2 d8 k2 e3, PS)”, the target mRNA inhibition in the series with SOD1 (HepG2, 0.1875 µM) was 40%; with SOD1 (HepG2, 0.75 µM), 75%; with SOD1 (HepG2, 3 µM) it was 92%; with SOD1 (HepG2, 4 µM) it was 85% and 86%; in the series with SOD1 (HepG2, 12 µM), 95% and 98%.
With “TAGGCCAGACCTCCGCGCCT (sugars e5 d10 e5, PS)”, the target mRNA inhibition in the series with SOD1 (HepG2, 4 µM) turned out to be 33%.
The same measure, in the same setting: with “GAATGTTTATTGGGCGA (sugars e2 k2 d8 k2 e3, PS)” the figure was 47%.
In the case of “GATTACAGTGTTTAATG (sugars e2 k2 d9 k2 e2, PS)”, the target mRNA inhibition with SOD1 (HepG2, 5 µM) was found to be 61%.
“TTACTTTCCTTCTGCTCGAA (sugars e5 d10 e5, PS)”: the target mRNA inhibition with SOD1 (HepG2, 3 µM) was 30%.
For the sequence “CTCGAAATTGATGATGCCCT (sugars e5 d10 e5, PS)”, the target mRNA inhibition with SOD1 (HepG2, 4 µM) amounted to 31%.
As for “GTGTTTAATGTTTATCA (sugars e2 k2 d8 k2 e3, PS)”, the target mRNA inhibition with SOD1 (HepG2, 0.1875 µM) came to 44%; with SOD1 (HepG2, 0.75 µM) it was 71%; in the series with SOD1 (HepG2, 3 µM), 83%; with SOD1 (HepG2, 5 µM), 86%; with SOD1 (HepG2, 12 µM), 84%.
Consider “TATTCACAGGCTTGAAT (sugars e3 k2 d7 k2 e3, PS)”, for which the target mRNA inhibition with SOD1 (HepG2, 3 µM) stood at 0%.
On to “CAGGATACATTTCTACAGCT (sugars e5 d10 e5, linkages s1 o3 s11 o3 s1)”, for which the target mRNA inhibition with SOD1 (A431, 0.12 µM) was 13%; with SOD1 (A431, 0.6 µM) it was 24%; in the series with SOD1 (A431, 3 µM) it was 41%; in the series with SOD1 (A431, 15 µM), 62%; with SOD1 (HepG2, 0.222 µM) it was 38%; in the series with SOD1 (HepG2, 0.667 µM) it was 70%. In addition, the target mRNA inhibition was 95% in the series with SOD1 (HepG2, 2 µM) and 88% with SOD1 (HepG2, 6 µM).
Regarding “ACTGCAACGGAAACCCCAGA (sugars e5 d10 e5, PS)”, the target mRNA inhibition in the series with SOD1 (HepG2, 4 µM) was 43%.
For “ACACAATTACACTTTTAAGA (sugars e5 d10 e5, PS)”, the target mRNA inhibition with SOD1 (HepG2, 5 µM) was determined as 0%.
As to “CAAGTCATCTGCTTTTT (sugars e3 k2 d7 k2 e3, PS)”, the target mRNA inhibition in the series with SOD1 (HepG2, 3 µM) was determined as 42%.
“GGATACATTTCTACAGC (sugars e2 k2 d9 k2 e2, linkages s1 o3 s9 o1 s2)”: the target mRNA inhibition in the series with SOD1 (A431, 0.12 µM) was 4%; with SOD1 (A431, 0.6 µM), 12%; with SOD1 (A431, 3 µM), 36%; with SOD1 (A431, 15 µM), 51%; with SOD1 (HepG2, 0.222 µM), 62%; in the series with SOD1 (HepG2, 0.667 µM) it was 78%. Further, the target mRNA inhibition amounted to 95% with SOD1 (HepG2, 2 µM) and 91% in the series with SOD1 (HepG2, 6 µM).
Consider “GGCGATCCCAATTACACCAC (sugars e5 d8 e7, linkages s1 o3 s10 o3 s2)”, for which the target mRNA inhibition with SOD1 (A431, 0.062 µM) turned out to be 0%; in the series with SOD1 (A431, 0.185 µM), 9%; with SOD1 (A431, 0.556 µM), 0%; with SOD1 (A431, 1.667 µM), 0%; with SOD1 (A431, 5 µM) it was 4%; with SOD1 (A431, 15 µM), 0%. Moreover, the target mRNA inhibition turned out to be 5% with SOD1 (SH-SY5Y, 0.062 µM); 2% with SOD1 (SH-SY5Y, 0.185 µM); 16% in the series with SOD1 (SH-SY5Y, 0.556 µM); 25% in the series with SOD1 (SH-SY5Y, 1.667 µM); 36% with SOD1 (SH-SY5Y, 5 µM); 61% with SOD1 (SH-SY5Y, 15 µM).
In the case of “CTTTTTCATGGACCACC (sugars e3 k2 d7 k2 e3, PS)”, the target mRNA inhibition with SOD1 (HepG2, 3 µM) turned out to be 87%.
With GCTTGACAAGCAATTA (sugars k3 d10 k3, PS), the target mRNA inhibition with MALAT1 stood at 35%.
The same measure, in the same setting: in the case of ATTATCCTGATATTGG (sugars k3 d10 k3, PS) it was 46%; in that of CCCAGTTCAATACTTT (sugars k3 d10 k3, PS), 25%; in that of TAGCAGTAACATCTGA (sugars k3 d10 k3, PS), 46%.
In the case of GAAAGATTTGAGCTGC (sugars k3 d10 k3, PS), in the series with MALAT1, the target mRNA inhibition is -10%.
Regarding AAGACTAAAGGCTTCA (sugars k3 d10 k3, PS), the target mRNA inhibition in the series with MALAT1 turned out to be 21%.
For the sequence TAGATTCCGTAACTTT (sugars k3 d10 k3, PS), in the series with MALAT1, the target mRNA inhibition turned out to be 58%.
The same measure, in the same setting: with ACTCTGATCATAATCT (sugars k3 d10 k3, PS) the figure was 35%; with TACAAAACGAATTCAG (sugars k3 d10 k3, PS), 20%.
Still for that read-out and setting: with TAAATCATTGGGAGTT (sugars k3 d10 k3, PS) the figure was 38%; with GCATTGCCCTTCTATT (sugars k3 d10 k3, PS), 70% and 46%.
